Test results: ChEMBL document CHEMBL4715922, “Methionine Adenosyltransferase Inhibitors for the Treatment of Cancer” (ACS Med Chem Lett, 2021)

How the values were obtained:
[1] = tested on: HCT-116; assay: Antiproliferative activity against isogenic pair of human HCT-116 cells harboring […] del mutant assessed as reduction in cell growth incubated for 4 days by Cell Titer-Glo assay; assay type: cell-based; details: HCT-116, 96 h
[2] = target: T1, S-adenosylmethionine synthase isoform type-2 (Homo sapiens, UniProt P31153); assay: Inhibition of recombinant human MAT2A expressed in baculovirus infected Sf9 cells using L-methionine as substrate incubated for 60 mins followed by substrate addition and measured after 60 mins by S-adenosyl methionine assay kit method
T1 sequence (P31153 whole entry, canonical isoform): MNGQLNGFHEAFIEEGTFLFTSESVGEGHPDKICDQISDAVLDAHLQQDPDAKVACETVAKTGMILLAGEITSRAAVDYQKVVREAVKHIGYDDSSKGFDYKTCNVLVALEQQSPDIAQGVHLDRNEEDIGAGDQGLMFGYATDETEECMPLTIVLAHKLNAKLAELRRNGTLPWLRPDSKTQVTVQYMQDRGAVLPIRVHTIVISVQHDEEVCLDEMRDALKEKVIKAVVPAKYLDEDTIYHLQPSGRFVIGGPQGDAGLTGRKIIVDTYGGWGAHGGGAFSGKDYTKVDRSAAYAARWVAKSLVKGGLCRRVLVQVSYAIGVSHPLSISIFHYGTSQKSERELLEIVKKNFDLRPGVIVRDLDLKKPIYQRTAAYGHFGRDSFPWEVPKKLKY

[3] = target: T1, S-adenosylmethionine synthase isoform type-2; assay: Inhibition of MAT2A in human HCT-116 cells assessed as reduction in SAM incubated for 72 hrs by LC-MS/MS analysis; assay type: cell-based
[4] = tested on: HCT-116; assay: Antiproliferative activity against human HCT-116 cells harboring wild type […] assessed as reduction in cell growth incubated for 4 days by Cell Titer-Glo assay; assay type: functional, cell-based; details: HCT-116, 96 h

SMILES | IC50 [1] [nM] | IC50 [2] [nM] | IC50 [3] [nM] | IC50 [4] [nM]
Cn1cc2cc(-n3nc4ccc(OCC(F)(F)F)nc4c(-c4ccc(Cl)cc4)c3=O)ccc2n1 | < 100 | < 100 | < 100 | ≥ 100
Cn1cc2cc(-n3nc4ccc(SCC(F)(F)F)nc4c(-c4ccc(OC(F)F)cc4)c3=O)ccc2n1 | < 100 | < 100 | < 100 | ≥ 100
CCOc1ccc2nn(-c3ccc4nn(C)cc4c3)c(=O)c(-c3ccc(OC)cc3)c2n1 | < 100 | < 100 | < 100 | ≥ 100
O=c1c(-c2ccc(OC(F)F)cc2)c2nc(OCC(F)F)ccc2nn1-c1ccc2c(c1)CCO2 | < 100 | < 100 | < 100 | ≥ 100
[2H]C([2H])([2H])Oc1c2cc(-n3nc4ccc(OCC(F)F)nc4c(-c4ccc(OC(F)F)cc4)c3=O)ccc2nn1C | < 100 | < 100 | < 100 | ≥ 100
COc1ccc(-c2c(=O)n(-c3ccc4nn(C)cc4c3)nc3ccc(OCC(F)F)nc23)cn1 | < 100 | < 100 | < 100 | ≥ 100
Cn1cc2cc(-n3nc4ccc(OCCC(F)(F)F)nc4c(-c4ccc(OC(F)F)cc4)c3=O)ccc2n1 | ≥ 100 | < 100 | ≥ 100 | ≥ 1000
Cn1cc2cc(-n3nc4ccc(OCC(F)F)nc4c(-c4ccc(OC(F)F)cc4)c3=O)ccc2n1 | < 100 | < 100 | < 100 | ≥ 100
Cn1cc2cc(-n3nc4ccc(OCC(F)(F)F)nc4c(-c4ccc(OC(F)F)cc4)c3=O)ccc2n1 | < 100 | < 100 | < 100 | ≥ 100
O=c1c(-c2ccc(OC(F)F)cc2)c2nc(OCC(F)F)ccc2nn1-c1ccc2ncsc2c1 | < 100 | < 100 | < 100 | < 100
